Source: patent US12086788B2, “Substituted pyrazines as inhibitors of BTK, and mutants thereof” (Newave Pharmaceutical Inc., priority 2018, dated 2024)
Entries after “also recorded” stand apart in the source; their conditions may differ.

Legend:
WT BTK [1] = target: T1, WT BTK (Homo sapiens, UniProt Q06187); assay: In vitro dialysis assay (irreversibility assay); assay type: biochemical; settings: from recovery after 24 h dialysis
Experimental: The compound-enzyme complex was dialyzed against the same buffer supplemented with 40 mM ATP for 24 hr. Cumulative dialysis factor>160,000×. After dialysis, the BTK activity was measured in the presence […] and 1 mM substrate peptide and compared to that in non-dialyzed samples. Assay buffer: 100 mM HEPES, pH7.5; 0.1% BSA, 0.01% Triton-X 100; 5 mM MgCl2; 1 mM DTT.

WT BTK [2] = target: T1, WT BTK; assay: Caliper-based biochemical enzymatic assay (IC50), WT BTK; settings: 0.5 nM enzyme, ATP 16 μM, room temperature 3 h; read-out: WT BTK IV50 (nM) (irreversible inhibition)
Experimental: (§1) The reaction was then terminated with EDTA, final concentration 20 mM and the phosphorylated reaction product was quantified on a Caliper Desktop Profiler (Caliper LabChip 3000).

C481S BTK [3] = target: T2, C481S BTK (Homo sapiens, UniProt Q06187, C481S); assay: Caliper-based biochemical enzymatic assay (IC50), C481S BTK; settings: for IC50: 0.5 nM enzyme, ATP 16 μM, room temperature 3 h, read-out: C481S BTK IC50 (nM) (reversible inhibition)
Experimental: as §1

C481S BTK [4] = target: T2, C481S BTK; assay: Reversibility of binding to the C481S BTK enzyme; assay type: biochemical; settings: Cysteine residue not available for covalent binding
[5] = system: basophil activation, B cell receptor activation, and constitutive p-BTK activity in whole blood lysates; settings: read-out: IC50s for basophil activation, B cell receptor activation, and constitutive p-BTK activity; cited from earlier work
rats = settings: treatment for longer than 7 days; cited from earlier work
mice = settings: even at higher doses; cited from earlier work
dogs = settings: even at higher doses; cited from earlier work
[6] = Phase I clinical trials, formulations containing GDC-0853; cited from earlier work

T2 sequence (Q06187 whole entry C481S): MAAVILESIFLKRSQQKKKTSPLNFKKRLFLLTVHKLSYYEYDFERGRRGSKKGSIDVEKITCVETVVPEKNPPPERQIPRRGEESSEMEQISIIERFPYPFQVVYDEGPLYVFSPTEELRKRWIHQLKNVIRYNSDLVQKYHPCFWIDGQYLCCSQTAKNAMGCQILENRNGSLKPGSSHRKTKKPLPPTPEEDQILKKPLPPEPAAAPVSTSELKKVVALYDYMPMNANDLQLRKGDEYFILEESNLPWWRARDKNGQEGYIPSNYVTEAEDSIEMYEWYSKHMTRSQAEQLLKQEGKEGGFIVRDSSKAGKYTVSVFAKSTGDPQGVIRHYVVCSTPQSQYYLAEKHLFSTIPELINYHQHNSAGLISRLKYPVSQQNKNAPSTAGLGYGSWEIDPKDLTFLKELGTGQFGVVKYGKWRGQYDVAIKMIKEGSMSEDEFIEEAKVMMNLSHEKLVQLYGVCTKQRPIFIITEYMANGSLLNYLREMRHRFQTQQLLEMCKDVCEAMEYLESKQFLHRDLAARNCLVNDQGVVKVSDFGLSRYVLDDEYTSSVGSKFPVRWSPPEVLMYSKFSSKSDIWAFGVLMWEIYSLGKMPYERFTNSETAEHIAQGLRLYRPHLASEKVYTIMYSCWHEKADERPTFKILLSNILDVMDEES
T1 sequence (Q06187 whole entry): as the sequence (Q06187 whole entry C481S) above, with S481C counted along it

SMILES	IC50 (WT BTK [2]) [nM]	fold more potent than ACT-196 in C481S BTK assay (C481S BTK [3])	fold more potent than Ibrutinib in C481S BTK assay (C481S BTK [3])	IC50 (C481S BTK [3]) [nM]	mode of binding to C481S BTK (C481S BTK [4])	Conclusion (WT BTK) (WT BTK [1])	IC50 [5] [nM]	pancreatic toxicity (rats)	pancreatic toxicity (mice)	pancreatic toxicity (dogs)	tolerability [6]
C=CC(=O)Nc1cc(Nc2nc(-c3ccnc(N4CCn5c(cc6c5CC(C)(C)C6)C4=O)c3CO)cn(C)c2=O)ccc1N1CCN(C)CC1 [Example 2, N-(5-((6-(2-(7,7-dimethyl-1-oxo-1,3,4,6,7,8-hexahydro-2H-cyclopenta[4,5]pyrrolo[1,2-a]pyrazin-2-yl)-3-(hydroxymethyl)pyridin-4-yl)-4-methyl-3-oxo-3,4-dihydropyrazin-2-yl)amino)-2-(4-methylpiperazin-1-yl)phenyl)acrylamide]	0.25	477	64	1.7	reversibly bind	irreversible inhibitors; also recorded: Irreversible/covalent inhibition	–	–	–	–	–
C=CC(=O)Nc1cc(Nc2nc(-c3ccnc(N4CCn5c(cc6c5CC(C)(C)C6)C4=O)c3CO)cn(C)c2=O)ccc1N1CCN(C2COC2)C[C@@H]1C [Example 3, (S)—N-(5-((6-(2-(7,7-dimethyl-1-oxo-1,3,4,6,7,8-hexahydro-2H-cyclopenta[4,5]pyrrolo[1,2-a]pyrazin-2-yl)-3-(hydroxymethyl)pyridin-4-yl)-4-methyl-3-oxo-3,4-dihydropyrazin-2-yl)amino)-2-(2-methyl-4-(oxetan-3-yl)piperazin-1-yl)phenyl)acrylamide]	< 1	–	–	< 1	–	irreversible inhibitors; also recorded: Irreversible/covalent inhibition	–	–	–	–	–
C[C@H]1CN(C2COC2)CCN1c1ccc(Nc2cc(-c3ccnc(N4CCn5c(cc6c5CC(C)(C)C6)C4=O)c3CO)cn(C)c2=O)nc1 [GDC-0853]	–	–	–	–	–	Reversible	2 to 9	pancreatic toxicity	does not occur	does not occur	well-tolerated

Second part, led by results:

IC50 (WT BTK [2]) [nM]	fold more potent than ACT-196 in C481S BTK assay (C481S BTK [3])	fold more potent than Ibrutinib in C481S BTK assay (C481S BTK [3])	IC50 (C481S BTK [3]) [nM]	mode of binding to C481S BTK (C481S BTK [4])	SMILES	Conclusion (WT BTK) (WT BTK [1])	IC50 [5] [nM]	pancreatic toxicity (rats)	pancreatic toxicity (mice)	pancreatic toxicity (dogs)	tolerability [6]
< 1	–	–	< 1	–	C=CC(=O)Nc1cc(Nc2nc(-c3ccnc(N4CCn5c(cc6c5CC(C)(C)C6)C4=O)c3C)cn(C)c2=O)ccc1N1CCN(C2COC2)C[C@@H]1C [Example 11, (S)—N-(5-((6-(2-(7,7-dimethyl-1-oxo-1,3,4,6,7,8-hexahydro-2H-cyclopenta[4,5]pyrrolo[1,2-a]pyrazin-2-yl)-3-methylpyridin-4-yl)-4-methyl-3-oxo-3,4-dihydropyrazin-2-yl)amino)-2-(2-methyl-4-(oxetan-3-yl)piperazin-1-yl)phenyl)acrylamide]	irreversible inhibitors; also recorded: Irreversible/covalent inhibition	–	–	–	–	–
< 1	–	–	< 1	–	C=CC(=O)Nc1cc(Nc2nc(-c3ccnc(N4CCn5c(cc6c5CC(C)(C)C6)C4=O)c3CO)cn(C)c2=O)ccc1N1CCC(N2CCOCC2)CC1C (stereo not drawn) [Example 12, N-(5-((6-(2-(7,7-dimethyl-1-oxo-1,3,4,6,7,8-hexahydro-2H-cyclopenta[4,5]pyrrolo[1,2-a]pyrazin-2-yl)-3-(hydroxymethyl)pyridin-4-yl)-4-methyl-3-oxo-3,4-dihydropyrazin-2-yl)amino)-2-(2-methyl-4-morpholinopiperidin-1-yl)phenyl)acrylamide]	irreversible inhibitors; also recorded: Irreversible/covalent inhibition	–	–	–	–	–
